Data on two compounds can be found in publication PMC5942844, “Identification and characterization of the Fasciola hepatica sodium- and chloride-dependent taurine transporter” (PLoS Neglected Tropical Diseases, 2018).

By IC50 is commonly meant the concentration needed to halve the response being measured. Usually Km stands for the substrate concentration at which the rate is half of its maximum.

Assay [1] deals with T1, human taurine transporter (HsTauT) (Homo sapiens, UniProt P31641).
T1 sequence (P31641 1-620): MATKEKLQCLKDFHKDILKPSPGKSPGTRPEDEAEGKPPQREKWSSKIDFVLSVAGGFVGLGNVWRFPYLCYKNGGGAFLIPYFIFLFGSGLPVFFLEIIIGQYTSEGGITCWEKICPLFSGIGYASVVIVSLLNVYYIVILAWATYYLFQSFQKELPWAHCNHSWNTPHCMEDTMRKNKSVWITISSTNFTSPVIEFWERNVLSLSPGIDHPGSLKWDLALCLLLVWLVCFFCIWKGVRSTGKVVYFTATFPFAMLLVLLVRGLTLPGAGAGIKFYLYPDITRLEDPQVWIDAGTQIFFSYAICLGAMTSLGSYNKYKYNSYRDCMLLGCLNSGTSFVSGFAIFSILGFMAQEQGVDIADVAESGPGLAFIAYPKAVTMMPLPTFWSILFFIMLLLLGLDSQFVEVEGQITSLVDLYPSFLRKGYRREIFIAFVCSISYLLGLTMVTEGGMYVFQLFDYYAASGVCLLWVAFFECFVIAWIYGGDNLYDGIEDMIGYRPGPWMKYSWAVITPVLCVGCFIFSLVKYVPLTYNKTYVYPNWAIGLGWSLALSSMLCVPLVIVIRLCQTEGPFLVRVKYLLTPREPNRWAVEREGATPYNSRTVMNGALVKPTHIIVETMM
Nature of the assay: [3H]GABA uptake by HEK293 cells expressing the human taurine transporter. On the set-up: expressed in transfected cells. The format is cell-based. Particulars: 0.3 μM to 3 mM [3H]GABA, three minutes. On the procedure: (§1) GABA uptake was assessed by incubating HEK293 cells (10^5/ well) stably expressing the human GABA-transporter-1 (HsGAT1, diamonds), the F. hepatica taurine transporter (FhTauT, circles) and the human taurine transporter (HsTauT, triangles) in KHB containing concentrations of [^3H]GABA covering the range of 0.3 μM to 3 mM for three minutes. The amount of labeled [^3H]GABA was kept constant and the specific activity was progressively diluted by the addition of unlabeled GABA (from 9 Ci/mmol to 9 Ci/mol). The reaction was stopped by the addition of ice-cold KHB followed by three rapid washes. Cells were detached and the accumulated radioactivity was determined by liquid scintillation counting.
(§2) Supplementary file pntd.0006428.s004.tif: S4 Fig [^3H]GABA uptake by the human GABA-transporter-1, the F. hepatica taurine transporter and the human taurine transporter. HEK293 cells (10^5/ well) stably expressing the human GABA-transporter-1 (HsGAT1, diamonds), the F. hepatica taurine transporter (FhTauT, circles) and the human taurine transporter (HsTauT, triangles) were incubated in the presence of the indicated concentrations of [^3H]GABA. The specific activity was progressively diluted by addition of unlabeled GABA (from 9 Ci/mmol to 9 Ci/mol). After three minutes the reaction was stopped and the accumulated radioactivity was determined by liquid scintillation counting. […]

The target in assay [2] is T1, human taurine transporter (HsTauT). Nature of the assay: [3H]taurine uptake by HEK293 cells stably expressing the human taurine transporter. The conditions noted are these: 0.1 μM [3H]taurine, 10 min. Here is the method: (§3) Human embryonic kidney-293 (HEK293 (ATCC CRL-1573, LGC standards Wesel, Germany)) cells, were grown in Dulbecco`s modified Eagle medium (DMEM) supplemented with 10% fetal bovine serum (FCS Nuaille, France), 100 units/ml penicillin and 100 μg/ml streptomycin at 37°C and with 5% CO2 in a humidified incubator. Cells were transfected with plasmids encoding fluorescently tagged or untagged versions of F. hepatica (FhTauT) and H. sapiens (HsTauT) taurine transporter using Jet Prime transfection reagent (Polyplus-transfection, France). To generate monoclonal cell lines stably expressing the transporters, transfected cells were subjected to and selected with the concentration of 0.2 mg/ml geneticin (G418) for 10 days. Surviving cells forming colonies were separated and analyzed for membrane localization of transporters and transport of taurine. After the selection process cells were kept at 50 μg/ml G418 to keep the selection pressure.
(§4) For saturation uptake experiments, cells were plated the day before the experiment at a density of about 50,000 cells/well onto poly (D-lysine)-coated 48-well culture plates (CytoOne, USA). On the day of the experiment, cells were washed with prewarmed Krebs-HEPES buffer twice (KHB) (120 mM NaCl, 3 mM KCl, 2 mM CaCl2, 2 mM MgCl2, 20 mM glucose, 10 mM HEPES, pH 7.3). Then, cells were incubated in KHB containing tracer amounts (0.1 μM) of [^3H]taurine, (19.1 Ci/mmol) (Perkin Elmer, USA) together with increasing concentrations of non-labeled taurine 10 min. The reaction was terminated after 10 minutes by removing the medium followed by rapid rinsing of cells with ice-cold assay buffer. Subsequently, cells were lysed with 0.5 ml of 1% sodium dodecyl sulfate (SDS) and transferred into scintillation vials for liquid scintillation counting. Non-specific uptake was determined by incubating cells in the presence of the blocker β-alanine (100 mM) before and during the experiment and subtracted from uptake values. Data were fit to a Michaelis-Menten equation.
(§5) Chloride-free KHB was prepared to examine the chloride dependence of both, FhTauT and HsTauT using acetate salts instead of chloride salts. Likewise, NaCl was replaced by choline chloride to examine the sodium requirement. Uptake experiments were performed as described above using 0.1 μM [^3H]taurine in sodium- and chloride-free modified KHB, respectively, mixed with increasing amounts of NaCl containing KHB thereby varying Na^+ and respectively Cl^- concentration from 0–120 mM. The inhibition experiments were performed in analogous manner with 0.1 μM [^3H]taurine and the logarithmically spaced concentrations of inhibitors.

The test system of assay [3] is taurine transporter (Slc6a6/TauT). Particulars: read-out: reported KM for GABA; cited from earlier work.
For assay [4], the target named is T2, F. hepatica taurine transporter (FhTauT) (Fasciola hepatica, UniProt A0A2R4LGM2).
T2 sequence (A0A2R4LGM2 1-647): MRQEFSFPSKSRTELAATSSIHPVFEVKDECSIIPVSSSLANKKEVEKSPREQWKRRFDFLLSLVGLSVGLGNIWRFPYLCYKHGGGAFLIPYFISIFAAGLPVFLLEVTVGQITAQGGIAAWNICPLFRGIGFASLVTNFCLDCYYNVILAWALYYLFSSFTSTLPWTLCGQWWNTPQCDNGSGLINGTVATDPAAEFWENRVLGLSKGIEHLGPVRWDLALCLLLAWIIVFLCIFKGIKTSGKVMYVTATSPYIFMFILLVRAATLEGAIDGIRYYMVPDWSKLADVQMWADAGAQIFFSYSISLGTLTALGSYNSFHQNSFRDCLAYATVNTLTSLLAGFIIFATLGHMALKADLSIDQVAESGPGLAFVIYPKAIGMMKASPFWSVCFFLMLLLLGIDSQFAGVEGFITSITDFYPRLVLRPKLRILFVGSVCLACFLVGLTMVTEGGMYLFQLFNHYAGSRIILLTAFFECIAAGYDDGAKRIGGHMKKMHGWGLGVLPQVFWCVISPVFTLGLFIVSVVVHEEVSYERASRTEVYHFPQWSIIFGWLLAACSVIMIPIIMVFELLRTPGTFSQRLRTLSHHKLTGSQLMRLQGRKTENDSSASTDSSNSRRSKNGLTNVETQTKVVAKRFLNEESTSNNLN
Nature of the assay: [3H]GABA uptake by HEK293 cells expressing the F. hepatica taurine transporter. In kind it is cell-based. The conditions noted are these: 0.3 μM to 3 mM [3H]GABA, three minutes. On the procedure:
as §1, §2

In assay [5] the target is T2, F. hepatica taurine transporter (FhTauT). Nature of the assay: cell-based. On the procedure:
as §3, §4, §5

Another assay concerns taurine transporter. Also noted: method as in PMID 1435737. The conditions noted are these: 100 μM β-alanine; cited from earlier work.

Each structure is given as a SMILES string. Read-outs that look alike come from different tables or passages of the source.

As to `NCCCC(=O)O` [GABA], the figures for the “uptake of [3H]GABA” value in assay [1], in assay [4] and in assay [4] (listed as [^3H]GABA) were “failed to detect any uptake”, “not of GABA” and “failed to detect any uptake”, respectively. Besides, the IC50 in assay [2] (read-out: IC50 for inhibition of [3H]taurine uptake) was 1600 ± 500 µM; in assay [5] (read-out: IC50 for inhibition of [3H]taurine uptake, 0.1 μM [3H]taurine, 10 min), 5600 ± 900 µM. Also, in assay [3], the Km is 1460 µM. In addition, in assay [5], the “less potent in inhibiting the F. hepatica than the human transporter” value is “about 3 fold”. The “affinity lower than that of taurine” value in assay [5] (alternative substrates vs taurine) is recorded as around 350 fold.

As to `NCCC(=O)O` [β-alanine], the 50% inhibitory concentration (IC50) in assay [2] (IC50 for inhibition of [3H]taurine uptake) was 132 ± 54 µM. Besides, in the assay on taurine transporter, the inhibition of uptake result is on record as “about 50%”. In addition, in assay [5], the IC50 was 713 ± 260 µM and the “affinity lower than that of taurine” value is “about 50 fold”. The “less potent in inhibiting the F. hepatica than the human transporter” value in assay [5] (human, hek293 cells) is reported as around 5 fold.
